# Test results published in patent US20240325544A1, “CATIONIC LIPID FOR COVALENT MODIFICATION OF PEPTIDES” (PharmalN Corporation, priority 2023, published 2024).
# Bridge positions count the residues as written; N and C are the ends. Square brackets hold non-standard residues; d marks the D form. Peptide text beside a SMILES is read from it. * marks the point of attachment. Palmitoyl = CCCCCCCCCCCCCCCC(=O)*; Dap = NC[C@H](N)C(=O)O; AEEA = NCCOCCOCC(=O)O
# Legend:
# [1] = test system: C57BL/6J mice; assay: Acute exacerbation of idiopathic pulmonary fibrosis (IPF-AE) model, bleomycin + LPS (FIG. 5); format: in vivo; details: Bleo 1.0 mg/kg IT, LPS 0.025 mg/kg IT; 0.3 mg/kg SC day before, of and after LPS
# Description: FIGS. 5A-5E: The effect of cationic alkyl modified CNP derivatives in inflammation status of acute exacerbation of idiopathic pulmonary fibrosis (IPF-AE). Error bars indicate standard error of the mean. Increased inflammatory status in lung, especially increase of neutrophils, MCP1, IL-6, are seen in IPF-AE. Its decrease indicates resolution of IPF-AE. […] After 3 weeks, mice were treated with LPS (0.025 mg/kg IT) and treated SC with SEQ ID NO: 29 or 31 at 0.3 mg/kg (0.1 μmol/kg) the day before, of, and after LPS treatment as shown in the diagram. Additionally, a normal control (NC) group without LPS/Bleo treatment, a Bleo group without LPS treatment, and a Control group without test article treatment were also included. […]
# Animal care and treatment: Male C57BL/6J mice (6 weeks-old) were purchased from Kyudo (Saga, Japan) and maintained under a 12-hour light/12-hour dark cycle with free access to water and standard mouse diet (MF diet, Oriental Yeast Co., Ltd. Tokyo, Japan). […] Lung weight/body weight ratio increase is a commonly measured parameter that indicates lung damage. […] The expression of MPO was assessed by Image J (NIH, Bethesda, MD, USA). […] Macrophage chemoattractant protein-1 (MCP1) was measured by using ELISA kit (R&D SYSTEMS, Minneapolis M N). […] The gene expression levels of IL-6 were measured with qRT-PCR-analysis by using cDNA synthesis kit (Qiagen; Venlo, the Netherlands). […]
# [2] = test system: C57BL/6J mice; assay: Bleomycin mouse model of idiopathic pulmonary fibrosis, alveolar area (FIG. 8); format: in vivo; details: Day 21
# Description: FIGS. 8A-8B. […] Additionally, a normal control group (NC; n=3) without Bleo, and a Bleo Control group (n=7) without test article treatment were also included in this study. On Day 21 post Bleo administration, the mice were sacrificed under isoflurane anesthesia, and their lung tissues were harvested. FIG. 8B) A part of the lung tissue was fixed in 4% PFA, and Azan staining was performed, and alveolar areas (inversely proportional to the degree of fibrosis) were measured by Image J in a blinded setting. Error bars indicate standard error of the mean. Statistical analysis was performed by Student t-test on GraphPad Prism (n=3, 7, 7, 7, and 7); NC, Bleo Control, SEQ ID NO: 31, Pir, and Combo (SEQ ID NO: 31 & pirfenidone) *** P<0.001, ns=not significant vs NC.
# Animal care and treatment: Male C57BL/6J mice (6 weeks-old) were purchased from Kyudo (Saga, Japan) and maintained under a 12-hour light/12-hour dark cycle with free access to water and standard mouse diet (MF diet, Oriental Yeast Co., Ltd. Tokyo, Japan). To induce lung fibrosis, mice received IT administration of bleomycin (Bleo; 1.0 mg/kg; Nippon Kayaku Tokyo, Japan). […] Alveolar area, which is inversely proportional to fibrotic area, were measured by Image J in a blinded setting (NIH, Bethesda, MD, USA).
structure (smiles),measurement,setting,value
CCCCCCCCCCCCCCCC(=O)NCCOCCOCC(=O)NCCOCCOCC(=O)NCCOCCOCC(=O)N[C@@H](CN)C(=O)N[C@@H](CN)C(=O)NCC(=O)N[C@@H](CC(C)C)C(=O)N[C@@H](CO)C(=O)N[C@@H](CCCCN)C(=O)NCC(=O)N[C@H]1CSSC[C@@H](C(=O)O)NC(=O)CNC(=O)[C@H](CC(C)C)NC(=O)CNC(=O)[C@H](CO)NC(=O)[C@H](CCC(N)=O)NC(=O)[C@H](CO)NC(=O)CNC(=O)[C@H]([C@@H](C)CC)NC(=O)[C@H](CCCNC(=N)N)NC(=O)[C@H](CC(=O)O)NC(=O)[C@H](CC(C)C)NC(=O)[C@H](CCCCN)NC(=O)[C@H](CC(C)C)NC(=O)CNC(=O)[C@H](Cc2ccccc2)NC1=O [SEQ ID NO: 31] ({Palmitoyl-AEEA-AEEA-AEEA}-[Dap][Dap]GLSKGCFGLKLDRIGSQSGLGC-OH; disulfide 8-24; C-terminus assumed),MCP1 in lung,[1],significant decrease of MCP1
same,Alveolar area (inversely proportional to fibrosis),"[2]; alone, 0.3 mg/kg SC once a day on weekdays from day 7",significantly higher alveolar area
same,Alveolar area (inversely proportional to fibrosis),[2]; in combination with pirfenidone 100 mg/kg orally,significantly higher alveolar area
